Patent US20170190671A1, “BIS(ARYL)CATECHOL DERIVATIVES AS HERBICIDES” (E I DU PONT DE NEMOURS AND COMPANY, priority 2014, published 2017)

Columns and labels:
Experiment in all cases: Test C postemergence
Type in all cases: in vivo
[1] = test system: Italian ryegrass (Lolium multiflorum); settings: Lolium multiflorum, post-emergence, 336 h, Postemergence, scale 0 to 100, read-out: Plant response rating, Ryegrass, Italian
How it was run: (§1)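 Seeds in loam-sand soil were treated preemergence, and plants at the 1- to 4-leaf stage (2-18 cm) in peat-based medium were sprayed postemergence, with test chemicals in a non-phytotoxic solvent containing surfactant. After 13-15 days in a greenhouse, response was rated visually against controls from 0 (no effect) to 100 (complete control).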

[2] = test system: barnyardgrass (Echinochloa crus-galli); settings: Echinochloa crus-galli, post-emergence, Postemergence, scale 0 to 100, read-out: Plant response rating, Barnyardgrass
How it was run: as §1

[3] = test system: blackgrass (Alopecurus myosuroides); settings: Alopecurus myosuroides, post-emergence, 336 h, Postemergence, scale 0 to 100, read-out: Plant response rating, Blackgrass
How it was run: as §1

[4] = test system: corn (Zea mays); settings: Zea mays, post-emergence, 336 h, Postemergence, scale 0 to 100
How it was run: as §1

[5] = test system: giant foxtail (Setaria faberii); settings: Setaria faberi, post-emergence, 336 h, Postemergence, scale 0 to 100, read-out: Plant response rating, Foxtail, Giant
How it was run: as §1

[6] = test system: johnsongrass (Sorghum halepense); settings: Sorghum halepense, post-emergence, 336 h, Postemergence, scale 0 to 100, read-out: Plant response rating, Johnsongrass
How it was run: as §1

[7] = test system: lambsquarters (Chenopodium album); settings: Chenopodium album, post-emergence, 336 h, Postemergence, scale 0 to 100, read-out: Plant response rating, Lambsquarters
How it was run: as §1

[8] = test system: large (Lg) crabgrass (Digitaria sanguinalis); settings: Digitaria sanguinalis, post-emergence, 336 h, Postemergence, scale 0 to 100, read-out: Plant response rating, Crabgrass, Large
How it was run: as §1

[9] = test system: morningglory (Ipomoea coccinea); settings: Ipomoea, post-emergence, 336 h, Postemergence, scale 0 to 100, read-out: Plant response rating, Morningglory
How it was run: as §1

[10] = test system: oilseed rape (Brassica napus); settings: Brassica napus, post-emergence, Postemergence, scale 0 to 100, read-out: Plant response rating, Oilseed Rape
How it was run: as §1

[11] = test system: ragweed (common ragweed, Ambrosia elatior); settings: Ambrosia artemisiifolia, post-emergence, 336 h, Postemergence, scale 0 to 100, read-out: Plant response rating, Ragweed
How it was run: as §1

[12] = test system: soybean (Glycine max); settings: Glycine max, post-emergence, Postemergence, scale 0 to 100, read-out: Plant response rating, Soybean
How it was run: as §1

[13] = test system: velvetleaf (Abutilon theophrasti); settings: Abutilon theophrasti, post-emergence, Postemergence, scale 0 to 100, read-out: Plant response rating, Velvetleaf
How it was run: as §1

[14] = test system: winter wheat (Triticum aestivum); settings: Triticum aestivum, post-emergence, 336 h, Postemergence, scale 0 to 100, read-out: Plant response rating, Wheat
How it was run: as §1

Fc1cccc(Oc2ncc(Cl)cn2)c1Oc1ccc(Cl)nc1 [Compound 20]
pest or weed control at 31 g/ha ([1]; 31 g ai/ha): 5% | pest or weed control at 62 g/ha ([1]; 62 g ai/ha): 5% | pest or weed control at 125 g/ha ([1]; 125 g ai/ha): 10% | pest or weed control at 250 g/ha ([1]; 250 g ai/ha): 15% | pest or weed control at 31 g/ha ([2]; 31 g ai/ha): 5% | pest or weed control at 62 g/ha ([2]; 62 g ai/ha): 5% | pest or weed control at 125 g/ha ([2]; 125 g ai/ha): 10% | pest or weed control at 250 g/ha ([2]; 250 g ai/ha): 10% | pest or weed control at 31 g/ha ([3]; 31 g ai/ha): 5% | pest or weed control at 62 g/ha ([3]; 62 g ai/ha): 10% | pest or weed control at 125 g/ha ([3]; 125 g ai/ha): 5% | pest or weed control at 250 g/ha ([3]; 250 g ai/ha): 15% | Corn plant response rating (crop injury, 0 = no effect, 100 = complete kill) at 31 g/ha ([4]; 31 g ai/ha): 5% | Corn plant response rating (crop injury, 0 = no effect, 100 = complete kill) at 62 g/ha ([4]; 62 g ai/ha): 15% | Corn plant response rating (crop injury, 0 = no effect, 100 = complete kill) at 125 g/ha ([4]; 125 g ai/ha): 20% | Corn plant response rating (crop injury, 0 = no effect, 100 = complete kill) at 250 g/ha ([4]; 250 g ai/ha): 15% | pest or weed control at 31 g/ha ([5]; 31 g ai/ha): 15% | pest or weed control at 62 g/ha ([5]; 62 g ai/ha): 20% | pest or weed control at 125 g/ha ([5]; 125 g ai/ha): 15% | pest or weed control at 250 g/ha ([5]; 250 g ai/ha): 15% | pest or weed control at 31 g/ha ([6]; 31 g ai/ha): 5% | pest or weed control at 62 g/ha ([6]; 62 g ai/ha): 5% | pest or weed control at 125 g/ha ([6]; 125 g ai/ha): 5% | pest or weed control at 250 g/ha ([6]; 250 g ai/ha): 5% | pest or weed control at 31 g/ha ([7]; 31 g ai/ha): 85% | pest or weed control at 62 g/ha ([7]; 62 g ai/ha): 75% | pest or weed control at 125 g/ha ([7]; 125 g ai/ha): 75% | pest or weed control at 250 g/ha ([7]; 250 g ai/ha): 80% | pest or weed control at 31 g/ha ([8]; 31 g ai/ha): 5% | pest or weed control at 62 g/ha ([8]; 62 g ai/ha): 5% | pest or weed control at 125 g/ha ([8]; 125 g ai/ha): 10% | pest or weed control at 250 g/ha ([8]; 250 g ai/ha): 20% | pest or weed control at 31 g/ha ([9]; 31 g ai/ha): 30% | pest or weed control at 62 g/ha ([9]; 62 g ai/ha): 60% | pest or weed control at 125 g/ha ([9]; 125 g ai/ha): 65% | pest or weed control at 250 g/ha ([9]; 250 g ai/ha): 65% | plant injury at 31 g/ha ([10]; 31 g ai/ha): 15% | plant injury at 62 g/ha ([10]; 62 g ai/ha): 70% | plant injury at 125 g/ha ([10]; 125 g ai/ha): 80% | plant injury at 250 g/ha ([10]; 250 g ai/ha): 70% | pest or weed control at 31 g/ha ([11]; 31 g ai/ha): 20% | pest or weed control at 62 g/ha ([11]; 62 g ai/ha): 20% | pest or weed control at 125 g/ha ([11]; 125 g ai/ha): 45% | pest or weed control at 250 g/ha ([11]; 250 g ai/ha): 60% | plant injury at 31 g/ha ([12]; 31 g ai/ha): 25% | plant injury at 62 g/ha ([12]; 62 g ai/ha): 70% | plant injury at 125 g/ha ([12]; 125 g ai/ha): 65% | plant injury at 250 g/ha ([12]; 250 g ai/ha): 65% | pest or weed control at 31 g/ha ([13]; 31 g ai/ha): 35% | pest or weed control at 62 g/ha ([13]; 62 g ai/ha): 30% | pest or weed control at 125 g/ha ([13]; 125 g ai/ha): 35% | pest or weed control at 250 g/ha ([13]; 250 g ai/ha): 55% | plant injury at 31 g/ha ([14]; 31 g ai/ha): 0% | plant injury at 62 g/ha ([14]; 62 g ai/ha): 0% | plant injury at 125 g/ha ([14]; 125 g ai/ha): 5% | plant injury at 250 g/ha ([14]; 250 g ai/ha): 5%
